Data reported in patent US7824661B2, “Technetium- and rhenium-bis(heteroaryl) complexes, and methods of use thereof” (priority 2002, dated 2010).

Assays:
[1] = Whole body biodistribution studies in rats; assay type: in vivo, Rats (Sprague Dawley, male)
Description: The animal care and use procedures were in accordance with the Guide for the Care and Use of Laboratory Animals and the Animal Welfare Act. The vertebrate animals in this research project were used to investigate the biodistribution and pharmacokinetics of the rotenone derivatives and determine uptake in the heart. Rats (Sprague Dawley, male, at 80-100 grams each) were used for the whole body biodistribution studies. The Tc-complexes, as well as Cardiolite™, were evaluated at three time points; 5, 30, and 120 minutes, with five animals per time point. In order to provide accurate statistics in the clearance rate measurements and to account for intra-species variation it was necessary to use this number of animals. The product was diluted to ˜10 μCi/100 μl using freshly prepared 10% ethanol/saline (0.9%) solution. The rats were injected via a lateral tail vein with a volume of 0.1 mL. The rats were sacrificed by decapitation, with immediate blood collection at the desired time points. Whole body biodistributions were performed on the animals immediately following decapitation, organ and tissue samples were taken and washed of excess blood, blotted dry and weighed. Radioactivity was assayed using automated Nal well counter. All tissue samples were counted together along with an aliquot of the injected dose so that % injected dose and % injected dose per gram of tissue could be calculated. […]

[2] = assay type: physicochemical
Description: The stability and robustness of the technetium-di(pyridine) complexes was assessed using challenges with free cysteine and histidine. Specifically, the experiments were performed using [^99mTc(CO)3(dipyridinemethylamine)]^+1.
This approach enables the creation of libraries containing the {M(CO)31}^1+ core. We have begun to define the biological fate of the ^99mTc-dipyridine complexes, allowing us to compare a series of future tridentate analogs. The dipyridine labeling proceeded in high yield and was stable to excess histidine and cysteine challenges for more than 18 hours. […] Activity decreased in all tissues as a function of time, except in the GI tract, which increased with time.
[^99mTc(CO)3(H2O)3]^+ was heated with [{N,N-di(pyridyl-2-methyl)}N-butyl-phthalimide in 0.5 mL (1 mg/mL) of methanol at 100° C. for 60 minutes. […] The product eluted with methanol at 20.8 minutes. The HPLC analysis was performed using a Supelco C18 column, 25 cm×4.6 mm column (5 μm pore size), equipped with 2 cm guard using solvent A=0.05 M triethylammonium phosphate buffer pH 2.5 and solvent B=methanol. The method employed was a gradient 5-95% B, 1 mL/minute for 30 minutes. The gradient ramped from 5-95 from 3-20 minutes.

[^99mTc(CO)3(DpK)]
blood clearance, % ID/g ([1]; at 5 minutes): 0.6 % ID/g | blood clearance, % ID/g ([1]; by 30 minutes): 0.07 % ID/g

[^99mTc(CO)3(dipyridinemethylamine)]^+1
stability and robustness in challenges with free cysteine and histidine [2]: stable | change in the components by HPLC analysis ([2]; aqueous solution of the complex incubated with cysteine for 18 hours at 37° C. at pH 7.4): no significant change
